# Paper PMC10794144, “A novel antibiotic class targeting the lipopolysaccharide transporter” (Nature, 2024)
# Like-named read-outs stand apart in the source and are kept apart here.
# Columns and labels:
# [1] = tested on: GABA-A (benzodiazapine binding site); experiment: Off-target screening (CEREP); design: species or system rat; settings: 10 µM, duplicates
# Procedure: (§1) Supplementary Table 1 │ Off-target activity screening f or MCP compou nds […]
# (§2) The assays given in the table above were conducted at Eurofins CEREP S A (Celle-Lévescault, France) and were run as single point measurements in duplicates in the presence of 10 µ M of the test compound and reported as percent inhibition of the radioligand signal or control enzymatic activity. n.d., not
# [2] = tested on: Nicotinic receptor, neuronal; experiment: Off-target screening (CEREP); assay type: binding, human; settings: 10 µM, duplicates
# Procedure: as §1, §2
# [3] = tested on: Nicotinic receptor, muscle; experiment: Off-target screening (CEREP); assay type: binding, human; settings: 10 µM, duplicates
# Procedure: as §1, §2
# hERG = hERG (Homo sapiens, UniProt Q12809); experiment: hERG
# Sequence of hERG (Q12809 whole entry): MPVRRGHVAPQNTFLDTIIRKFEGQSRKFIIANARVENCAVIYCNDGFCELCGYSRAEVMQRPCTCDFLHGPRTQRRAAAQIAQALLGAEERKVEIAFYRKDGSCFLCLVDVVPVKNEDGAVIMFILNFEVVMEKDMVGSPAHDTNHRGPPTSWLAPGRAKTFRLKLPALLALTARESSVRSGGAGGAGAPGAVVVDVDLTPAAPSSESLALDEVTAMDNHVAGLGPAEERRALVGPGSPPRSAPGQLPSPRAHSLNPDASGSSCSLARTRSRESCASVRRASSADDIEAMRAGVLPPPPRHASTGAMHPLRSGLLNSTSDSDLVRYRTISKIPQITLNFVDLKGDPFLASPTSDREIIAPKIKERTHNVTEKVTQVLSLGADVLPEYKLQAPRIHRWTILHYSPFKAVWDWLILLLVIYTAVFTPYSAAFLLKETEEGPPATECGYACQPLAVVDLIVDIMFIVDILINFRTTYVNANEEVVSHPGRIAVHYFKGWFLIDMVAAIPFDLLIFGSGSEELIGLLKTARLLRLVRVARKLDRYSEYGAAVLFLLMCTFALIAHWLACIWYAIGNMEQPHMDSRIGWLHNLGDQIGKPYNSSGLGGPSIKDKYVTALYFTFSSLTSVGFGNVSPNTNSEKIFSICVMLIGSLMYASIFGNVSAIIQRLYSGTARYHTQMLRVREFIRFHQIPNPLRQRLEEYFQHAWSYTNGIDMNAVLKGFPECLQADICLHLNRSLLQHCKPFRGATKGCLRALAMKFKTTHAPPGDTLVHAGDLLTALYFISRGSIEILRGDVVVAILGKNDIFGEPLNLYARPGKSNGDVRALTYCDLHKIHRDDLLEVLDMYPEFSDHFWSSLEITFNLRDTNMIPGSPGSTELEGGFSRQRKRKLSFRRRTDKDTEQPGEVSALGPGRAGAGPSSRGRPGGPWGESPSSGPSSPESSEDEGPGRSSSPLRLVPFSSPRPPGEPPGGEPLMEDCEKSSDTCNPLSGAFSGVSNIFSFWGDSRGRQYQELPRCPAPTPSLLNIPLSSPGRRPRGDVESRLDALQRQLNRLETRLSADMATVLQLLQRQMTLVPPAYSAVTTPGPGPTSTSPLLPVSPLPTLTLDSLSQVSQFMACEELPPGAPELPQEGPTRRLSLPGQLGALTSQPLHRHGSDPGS
# P. aeruginosa ATCC 27853 = experiment: microbe, parasite or virus in culture; settings: for MIC: Pseudomonas aeruginosa; for RO7223280 MIC 100%: P. aeruginosa ATCC 27853, read at 100%
# In short: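 Values come from CLSI-guided (M07, M100) broth microdilution in CAMHB. Endpoint: lowest concentration halting growth, judged by naked eye or by OD600 plateau.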
# C. albicans ATCC 90028 = experiment: microbe, parasite or virus in culture; settings: Candida albicans
# [4] = tested on: GSK-3A (second line so named); experiment: Off-target screening (CEREP); assay type: biochemical, human; settings: 10 µM, duplicates
# Procedure: as §1, §2
# [5] = tested on: Ca2+ channel (diltiazem site); experiment: Off-target screening (CEREP); assay type: binding, rat; settings: 10 µM, duplicates
# Procedure: as §1, §2
# PCP receptor = experiment: Off-target screening (CEREP); assay type: binding, rat; settings: 10 µM, duplicates
# Procedure: as §1, §2
# [6] = tested on: GABA Cl- channel receptor; experiment: Off-target screening (CEREP); assay type: binding, rat; settings: 10 µM, duplicates
# Procedure: as §1, §2
# [7] = Mouse pharmacokinetics study, i.v. bolus; assay type: in vivo; settings: male CD1 mice, 1 mg/kg IV; for Vss / t1/2, terminal plasma half-life: n = 3; for Cl: n = 3, LC-MS, non-compartmental
# Procedure: Three male CD1 mice were administered with compound formulation (0.5 mg ml^−1 in 0.9% aqueous sodium chloride solution) as an intravenous bolus dose of 1 mg per kg. Blood was sampled at 0.08, 0.25, 0.5, 1, 2, 4, 7 and 24 h after administration and the blood collecting tubes were centrifuged for 5 min at 5,200g at room temperature to isolate the plasma supernatant. The concentrations of compound in the plasma were analysed using a liquid chromatography–mass spectrometry method with a calibration range of 5–10,000 ng ml^−1. The pharmacokinetic parameters were derived from the individual concentration data and were estimated by non-compartmental analysis.
# HEK293 cells = experiment: Cell-viability assay (CellTiterGlo); assay type: cell-based; settings: Homo sapiens, 24 h, 37 °C, 3.125–100 μM, n = 2
# Procedure: Compounds were prepared in serial dilutions (3.125–100 μM in 1% DMSO) and transferred to 384-well plates together with a positive (Staurosporine) and a negative (no compound) control. In total, 25 μl of HEK293 cells (ATCC; verified by short tandem repeat PCR and mycoplasma negative) (50,000 cells per ml) were added in either low-serum-containing (0.5% fetal bovine serum (FBS)) or high-serum-containing (12.5% FBS, 1% BSA) medium (Dulbecco’s modified Eagle medium (DMEM), glucose, L-glutamine). The plates were incubated for 24 h at 37 °C and a mixture of CellTiterGlo and DMEM was added to the plates. After incubation at room temperature, the luminescence signal was read using a BioTeK reader and a calculated IC50 was derived from the data.
# [8] = Human whole blood haemolysis assay; settings: human heparinated blood, 10 min 37 °C
# Procedure: For the in vitro haemolysis test, blood was provided by Roche medical services through an anonymous blood donation for research program, approved by the Ethics Committee Northwestern Switzerland and Central Switzerland (EKNZ) and collected with informed consent. Blood was collected by venipuncture in ethylenediaminetetraacetic acid (EDTA) and Li-heparin-coated tubes. Plasma was prepared from anticoagulated blood by centrifugation (2,500g; 10 min; at room temperature) and the haematocrit was measured to ensure that it was within normal reference values. Each formulation of compound in saline was added at a concentration of 8 mg ml^−1 into test tubes containing exactly 0.5 ml of heparinated blood to give a final assay volume of 1 ml and a concentration of 4 mg ml^−1 or less (following further dilutions). After incubation in a water bath for 10 min at 37 °C, the tubes were centrifuged (10 min, 1,811g at room temperature) and 100 μl of the supernatant was subsequently transferred into test tubes containing 5 ml Drabkins solution (RANDOX Laboratories) and 1 ml phosphate buffer. Haemoglobin was photometrically determined at 540 nm according to the RANDOX test-kit instructions. The results were expressed as percentage haemolysis extrapolated from an internal standard curve with 0%, 50% and 100% haemolysed blood samples.
# [9] = ATCC27853, CAMHB, mode of at least three replicates (RO7036668 one replicate)
smiles,measurement,setting,value
CN1C(=O)[C@H](CCCCN)NC(=O)[C@H](CCCN)NCc2cccnc2Sc2c(Cl)ccc(Cl)c2CNC(=O)[C@@H]1Cc1c[nH]c2ccccc12 [RO7075573],percent inhibition,[1],-20%
same,percent inhibition,[2],-7%
same,percent inhibition,[3],5%
same,IC50,hERG,> 10 µM
same,hERG IC20,hERG,4 µM
same,MIC,P. aeruginosa ATCC 27853; ATCC27853,> 64 µg/mL
same,MIC 100%,"P. aeruginosa ATCC 27853; Study LGC281440, 100%",64 µg/mL
same,MIC 100%,"P. aeruginosa ATCC 27853; Study LGC282160, 100%",>64 µg/mL
same,MIC 100%,"P. aeruginosa ATCC 27853; Study LGC284879, 100%",>64 µg/mL
same,MIC 100%,"P. aeruginosa ATCC 27853; Study LGC285582, 100%",>64 µg/mL
same,MIC 100%,"P. aeruginosa ATCC 27853; Study LGC286210, 100%",64 µg/mL
same,MIC 100%,"P. aeruginosa ATCC 27853; Study LGC293598, 100%",>64 µg/mL
same,MIC 100%,"P. aeruginosa ATCC 27853; Study LGC294355, 100%",>64 µg/mL
same,MIC 100%,"P. aeruginosa ATCC 27853; Study LGC295147, 100%",64 µg/mL
same,MIC 100%,"P. aeruginosa ATCC 27853; Study LGC296813, 100%",64 µg/mL
same,MIC 100%,"P. aeruginosa ATCC 27853; Study LGC299544, 100%",>64 µg/mL
same,MIC 100%,"P. aeruginosa ATCC 27853; Study LGC301026, 100%",>64 µg/mL
same,MIC 100%,"P. aeruginosa ATCC 27853; Study LGC308175, 100%",>64 µg/mL
same,MIC 100%,"P. aeruginosa ATCC 27853; Study ROC010, 100%",>64 µg/mL
same,MIC 100%,"P. aeruginosa ATCC 27853; Study ROC012, 100%",>64 µg/mL
same,MIC,C. albicans ATCC 90028; ATCC90028,> 64 µg/mL
same,percent inhibition,[4],10%
same,percent inhibition,[5],-1%
same,percent inhibition,PCP receptor,-10%
same,percent inhibition,[6],-9%
same,Vss,[7],0.3 L/kg
same,"t1/2, terminal plasma half-life",[7],2 h
same,Cl,[7],5.7 mL/min/kg
same,IC50,HEK293 cells,> 100 µM
same,Haemolysis,"[8]; 4 mg/mL, haemoglobin at 540 nm",37%
CN1C(=O)[C@H](CCCN)NC(=O)[C@H](CCCN)NCc2ccccc2Sc2ccccc2CNC(=O)[C@@H]1Cc1c[nH]c2ccccc12 [RO7036668],MIC,P. aeruginosa ATCC 27853; [9],> 64 µg/mL
same,MIC,C. albicans ATCC 90028; ATCC90028,64 µg/mL
same,IC50,HEK293 cells,> 100 µM
CN1C(=O)[C@H](CCCCN)NC(=O)[C@H](CCCN)NCc2cccnc2Sc2cccc(-c3ccc(C(=O)O)cc3)c2CNC(=O)[C@@H]1Cc1c[nH]c2ccccc12 [zosurabalpin],percent inhibition,[1],-1%
same,percent inhibition,[2],-11%
same,percent inhibition,[3],-16%
same,IC50,hERG,> 20 µM
same,hERG IC20,hERG,> 10 µM
same,RO7223280 MIC 100%,P. aeruginosa ATCC 27853; Study LGC296813,>64 µg/mL
same,RO7223280 MIC 100%,P. aeruginosa ATCC 27853; Study LGC299544,>64 µg/mL
same,RO7223280 MIC 100%,P. aeruginosa ATCC 27853; Study LGC308175,>64 µg/mL
same,MIC,P. aeruginosa ATCC 27853; ATCC27853,> 64 µg/mL
same,MIC,C. albicans ATCC 90028; ATCC90028,> 64 µg/mL
same,percent inhibition,[4],-3%
same,percent inhibition,[5],-11%
same,percent inhibition,PCP receptor,-24%
same,percent inhibition,[6],1%
same,Vss,[7],0.7 L/kg
same,"t1/2, terminal plasma half-life",[7],0.3 h
same,Cl,[7],51 mL/min/kg
same,IC50,HEK293 cells,> 100 µM
same,Haemolysis,[8],None
"C[C@@H](O)[C@H]1C(=O)N2C(C(=O)O)=C(S[C@@H]3CN[C@H](C(=O)N(C)C)C3)[C@H](C)[C@H]12 [meropenem, reference compound]",MIC,P. aeruginosa ATCC 27853; [9],0.5 µg/mL
same,MIC,"P. aeruginosa ATCC 27853; ATCC27853, read-out: MIC 100%, Study LGC277937, 100%",0.5 µg/mL
same,MIC,"P. aeruginosa ATCC 27853; ATCC27853, read-out: MIC 100%, Study LGC279800, 100%",0.25 µg/mL
same,MIC,"P. aeruginosa ATCC 27853; ATCC27853, read-out: MIC 100%, Study LGC281440, 100%",0.25 µg/mL
same,MIC,"P. aeruginosa ATCC 27853; ATCC27853, read-out: MIC 100%, Study LGC282160, 100%",0.5 µg/mL
same,MIC,"P. aeruginosa ATCC 27853; ATCC27853, read-out: MIC 100%, Study LGC282623, 100%",0.5 µg/mL
same,MIC,"P. aeruginosa ATCC 27853; ATCC27853, read-out: MIC 100%, Study LGC283932, 100%",0.5 µg/mL
same,MIC,"P. aeruginosa ATCC 27853; ATCC27853, read-out: MIC 100%, Study LGC284200, 100%",0.5 µg/mL
same,MIC,"P. aeruginosa ATCC 27853; ATCC27853, read-out: MIC 100%, Study LGC284879, 100%",0.5 µg/mL
same,MIC,"P. aeruginosa ATCC 27853; ATCC27853, read-out: MIC 100%, Study LGC285582, 100%",0.25 µg/mL
same,MIC,"P. aeruginosa ATCC 27853; ATCC27853, read-out: MIC 100%, Study LGC286210, 100%",0.5 µg/mL
same,MIC,"P. aeruginosa ATCC 27853; ATCC27853, read-out: MIC 100%, Study LGC293598, 100%",0.5 µg/mL
same,MIC,"P. aeruginosa ATCC 27853; ATCC27853, read-out: MIC 100%, Study LGC294355, 100%",0.5 µg/mL
same,MIC,"P. aeruginosa ATCC 27853; ATCC27853, read-out: MIC 100%, Study LGC295147, 100%",0.5 µg/mL
same,MIC,"P. aeruginosa ATCC 27853; ATCC27853, read-out: MIC 100%, Study LGC296813, 100%",0.5 µg/mL
same,MIC,"P. aeruginosa ATCC 27853; ATCC27853, read-out: MIC 100%, Study LGC299544, 100%",0.5 µg/mL
same,MIC,"P. aeruginosa ATCC 27853; ATCC27853, read-out: MIC 100%, Study LGC301026, 100%",0.25 µg/mL
same,MIC,"P. aeruginosa ATCC 27853; ATCC27853, read-out: MIC 100%, Study LGC308175, 100%",0.25 µg/mL
same,MIC,"P. aeruginosa ATCC 27853; ATCC27853, read-out: MIC 100%, Study ROC003, 100%",0.5 µg/mL
same,MIC,"P. aeruginosa ATCC 27853; ATCC27853, read-out: MIC 100%, Study ROC004, 100%",0.5 µg/mL
same,MIC,"P. aeruginosa ATCC 27853; ATCC27853, read-out: MIC 100%, Study ROC005, 100%",0.5 µg/mL
same,MIC,"P. aeruginosa ATCC 27853; ATCC27853, read-out: MIC 100%, Study ROC006, 100%",0.5 µg/mL
same,MIC,"P. aeruginosa ATCC 27853; ATCC27853, read-out: MIC 100%, Study ROC007, 100%",0.5 µg/mL
same,MIC,"P. aeruginosa ATCC 27853; ATCC27853, read-out: MIC 100%, Study ROC008, 100%",2 µg/mL
same,MIC,"P. aeruginosa ATCC 27853; ATCC27853, read-out: MIC 100%, Study ROC009, 100%",0.25 µg/mL
same,MIC,"P. aeruginosa ATCC 27853; ATCC27853, read-out: MIC 100%, Study ROC010, 100%",0.5 µg/mL
same,MIC,"P. aeruginosa ATCC 27853; ATCC27853, read-out: MIC 100%, Study ROC012, 100%",0.12 µg/mL
same,MIC,"P. aeruginosa ATCC 27853; ATCC27853, read-out: MIC 100%, Study ROC013, 100%",0.5 µg/mL
same,MIC,C. albicans ATCC 90028; ATCC90028,> 64 µg/mL
same,MIC,"C. albicans ATCC 90028; ATCC90028, read-out: MIC 100%",> 64 µg/mL
